Paper PMC6204753, “Non-native autoinducer analogs capable of modulating the SdiA quorum sensing receptor in Salmonella enterica serovar Typhimurium” (Beilstein Journal of Organic Chemistry, 2018)
Marks after values point to notes of the source that are not given here.

How the values were obtained:
SdiA [1] = target: T1, SdiA (Salmonella enterica subsp. enterica serovar Typhimurium, UniProt O66040); assay: S. Typhimurium-pJNS25 SdiA reporter, agonism (luminescence); assay type: cell-based; details: for Emax: read-out: activation (%)
Text: (§1) Biological assays for SdiA activity. Cell-based reporter strains that rely on detecting the transcriptional activity of LuxR-type receptors are commonly used to assess the activity of exogenous ligands. We used the S. Typhimurium-pJNS25 reporter strain constructed by Smith and Ahmer and also used by Janssens et al. to examine SdiA activity. This strain naturally produces SdiA and contains a reporter plasmid with the promoter region for srgE fused to the luxABCDE operon of V. fischeri (see Experimental section for details of all strains and plasmids). SdiA activity is thus reported by the production of luciferase and resulting bioluminescence. We also prepared an SdiA reporter in E. coli (JLD271-pJN105SE-pSC11SE) to examine S. Typhimurium SdiA activity in an alternate background and with a different reporter gene output. […] This reporter construct uses an arabinose inducible promoter to produce S. Typhimurium SdiA and the promoter region for srgE fused to lacZ to report SdiA activity. SdiA activity is then measured using standard β-galactosidase assays. In both reporter strains, signal was normalized to the difference between the positive control (10 μM OOHL) and the negative control (1% DMSO; no compound).
(§2) Salmonella SdiA reporter assay. S. Typhimurium-pJNS25 was grown 16–18 h overnight in LB, diluted 1:100 in fresh LB medium, and then incubated for 6 h at 37 °C with shaking at 200 rpm in the presence of compounds (1% DMSO). […] All compounds were screened at 100 μM and 1 μM in triplicate in agonism and antagonism assays. […] Dose–response analyses were performed by preparing dilutions of compounds in DMSO and testing each concentration in the agonism or antagonism assays. Competition dose–response assays (data in Figure 5) were performed in the same manner as the antagonism assays, except instead of OOHL being added to the subculture, the antagonist being tested was added. Non-linear regression curve fits were generated using GraphPad Prism software (version 6) using variable slope (four parameter) dose–response analysis.

SdiA [2] = target: T1, SdiA; assay: S. Typhimurium-pJNS25 SdiA reporter, competitive antagonism against 10 nM L-OOHL; assay type: cell-based; details: for inhibition at 1 µM / Antagonism 1 μM Inhibition (%): 1 μM compound; for inhibition at 1 µM / inhibition at 100 µM / Antagonism 1 μM Inhibition (%) / Antagonism 100 μM Inhibition (%): average ± STD, change in activity from 10 nM 2 (OOHL); for inhibition at 1 µM: read-out: Antagonism 1 μM Inhibition (%); for inhibition at 100 µM / Antagonism 100 μM Inhibition (%): 100 μM compound; for inhibition at 100 µM: read-out: Antagonism 100 μM Inhibition (%); for Emax: maximal inhibition, 100% minus lowest % activity in presence of 10 nM L-OOHL (2), read-out: inhibition (%)
Text: as §1, §2

[3] = maximal activation of the antagonists (partial agonism), Table 3

T1 sequence (O66040 entry or part of it): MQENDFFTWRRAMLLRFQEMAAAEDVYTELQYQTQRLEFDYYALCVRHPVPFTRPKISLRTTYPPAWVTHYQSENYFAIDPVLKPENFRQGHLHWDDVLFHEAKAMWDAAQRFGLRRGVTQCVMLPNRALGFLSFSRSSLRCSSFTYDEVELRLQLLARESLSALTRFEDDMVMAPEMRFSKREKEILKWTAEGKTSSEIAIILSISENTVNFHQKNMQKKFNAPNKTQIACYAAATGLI

Compound | Antagonism 1 μM Inhibition (%) (SdiA [2]) | Antagonism 100 μM Inhibition (%) (SdiA [2]) | also measured
CCCCCCCCCCCCCCCC(=O)N[C@H]1CCOC1=O [A6] |  |  | Emax (SdiA [1]; [3]): 20%; inhibition at 1 µM (SdiA [2]): 17 ± 12%; inhibition at 100 µM (SdiA [2]): 38 ± 5%; IC50 (SdiA [2]; against 10 nM L-OOHL (EC90)): 1750 nM; Emax (SdiA [2]): > 50%
CCCCCCCCCCCCOc1ccc(C(=O)N[C@H]2CCOC2=O)cc1 [R9] |  |  | Emax (SdiA [1]; [3]): 6%; inhibition at 1 µM (SdiA [2]): 22 ± 10%; inhibition at 100 µM (SdiA [2]): 42 ± 13%; Emax (SdiA [2]): 63%
O=C(COc1ccc(I)cc1)N[C@H]1CCSC1=O [RN22] |  |  | EC50 (SdiA [1]; agonism dose–response, read-out: EC50): 6.08 nM; Emax (SdiA [1]; maximal activity (efficacy) from agonism dose–response, 10 μM OOHL = 100%, DMSO = 0%): 93%; fold increase (SdiA [1]; potency of thiolactone over corresponding lactone (EC50 ratio)): 1.71^c; inhibition at 1 µM (SdiA [2]): -4 ± 9%; inhibition at 100 µM (SdiA [2]): 3 ± 9%
O=C(CCc1cccc([N+](=O)[O-])c1)N[C@H]1CCOC1=O [E38] | 15 ± 11% | 32 ± 6% | 
O=C(Cc1cccc([N+](=O)[O-])c1)Nc1ccccc1 [F25] | 20 ± 4% | -2 ± 14% | 
O=C(CCc1ccc(C(F)(F)F)cc1)N[C@H]1CCOC1=O [compound 9, reference compound] | 32 ± 10% | 11 ± 16% | 
O=C(CC(=O)N[C@H]1CCOC1=O)Cc1ccccc1 [compound 5, reference compound] | 23 ± 9% | 17 ± 3% | 
O=C(Cc1cccc(C(F)(F)F)c1)N[C@H]1CCOC1=O [E3] | -14 ± 16% | 5 ± 8% | 
O=C(N[C@H]1CCOC1=O)c1cccc(Br)c1 [Q2] | 17 ± 2% | 9 ± 13% | 
O=C(N[C@H]1CCOC1=O)c1ccc([N+](=O)[O-])cc1 [Q7] | 28 ± 7% | 20 ± 9% | 
CCCCCCC(=O)N[C@H]1CCSC1=O [F6] | 5 ± 5% | -2 ± 7% | 
O=C(CCCc1c[nH]c2ccccc12)N[C@@H]1CCOC1=O [B5] | 30 ± 15% | -8 ± 5% | 
CC(C)Oc1ccc(C(=O)N[C@H]2CCOC2=O)cc1 [R3] | 23 ± 8% | 11 ± 10% | 
COc1ccc(C(=O)N[C@H]2CCOC2=O)cc1 [Q6] | 26 ± 18% | -6 ± 14% | 
O=C(CCCc1ccccc1)N[C@H]1CCOC1=O [compound 6, reference compound] | 31 ± 6% | 21 ± 10% | 
CCCCCCCCCCCC(=O)N[C@H]1CCSC1=O [F4] | -2 ± 11% | 2 ± 5% | 
[N-]=[N+]=Nc1ccc(CC(=O)N[C@H]2CCOC2=O)cc1 [C17] | 13 ± 11% | 9 ± 6% | 
CCOc1ccc(C(=O)N[C@H]2CCOC2=O)cc1 [R1] | 22 ± 6% | 13 ± 8% | 
O=C(N[C@H]1CCOC1=O)c1ccc(-c2ccccc2)cc1 [Q12] | 20 ± 9% | 26 ± 14% | 
CCCC(=O)CC(=O)N[C@H]1CCOC1=O [compound 3, reference compound] | 6 ± 16% | 20 ± 2% | 
CCCCCCCCCC(=O)CC(=O)Nc1cccc(OC)c1 [compound 14, reference compound] | 22 ± 19% | 12 ± 8% | 
O=C(Cc1ccccc1I)N[C@H]1CCOC1=O [C12] | 9 ± 13% | -24 ± 12% | 
O=C(N[C@H]1CCOC1=O)c1cnn(-c2ccccc2)c1C(F)(F)F [D9] | 26 ± 6% | 9 ± 1% | 

Compound | Antagonism 1 μM Inhibition (%) (SdiA [2]) | Antagonism 100 μM Inhibition (%) (SdiA [2]) | also measured
O=C(CCc1ccc(Br)cc1)N[C@H]1CCOC1=O [compound 8, reference compound] | 15 ± 8% | 4 ± 3% | 
O=C(N[C@H]1CCOC1=O)c1ccc(-c2csnn2)cc1 [D10] | 23 ± 6% | 14 ± 12% | 
O=C(Cc1ccccc1)N[C@H]1CCOC1=O [C1] | 9 ± 12% | -6 ± 5% | 
O=C(N[C@H]1CCOC1=O)c1ccc(Cl)cc1 [Q4] | 30 ± 4% | -25 ± 15% | 
O=C(N[C@H]1CCOC1=O)c1ccc(I)cc1 [Q5] | 28 ± 10% | -14 ± 10% | 
O=C(Cc1ccc(F)cc1)N[C@H]1CCOC1=O [C2] | 2 ± 8% | -8 ± 18% | 
O=C(N[C@H]1CCOC1=O)c1ccc(F)cc1 [Q3] | 34 ± 2% | -26 ± 17% | 
O=C(C=Cc1ccccc1)NC1CCOC1=O (stereo not drawn) [B10] | 16 ± 5% | -56 ± 11% | 
O=C(Cc1ccc(SC(F)(F)F)cc1)N[C@H]1CCOC1=O [E8] | 34 ± 11% | 31 ± 7% | 
O=C(N[C@H]1CCOC1=O)c1ccc(Br)cc1 [B6] | 25 ± 11% | -14 ± 17% | 
Cc1ccc(C(=O)N[C@H]2CCOC2=O)cc1 [Q8] | 17 ± 3% | 11 ± 3% | 
O=C(N[C@H]1CCOC1=O)c1ccccc1 [B8] | 26 ± 3% | -13 ± 11% | 
N#Cc1ccc(CC(=O)N[C@H]2CCOC2=O)cc1 [E4] | 12 ± 6% | -17 ± 18% | 
O=C(Cc1ccc(Br)cc1)N[C@H]1CCSC1=O [F10] | 8 ± 12% | -3 ± 7% | 
CCCCCCCCCCCCCC(=O)N[C@H]1CCOC1=O [H26] | 5 ± 14% | 0 ± 8% | SdiA antagonism (in words) (SdiA [2]; S. Typhimurium reporter): failed to inhibit SdiA
CCCOc1ccc(C(=O)N[C@H]2CCOC2=O)cc1 [R2] | 16 ± 9% | 11 ± 6% | 
O=C(NCc1cc(Br)cc(Br)c1OC(=O)c1ccccc1[N+](=O)[O-])c1ccccc1Cl [19P, reference compound] | 39 ± 16% | 25 ± 16% | 
O=C(Cc1cccc([N+](=O)[O-])c1)NC1CCCC1 [F18] | 4 ± 6% | 15 ± 3% | 
O=C(CCc1ccc(I)cc1)N[C@H]1CCOC1=O [E32] | 19 ± 14% | 24 ± 13% | 
O=C(Cc1cccc(F)c1)N[C@H]1CCOC1=O [C3] | -1 ± 15% | -18 ± 12% | 
O=C(CCCOc1ccc(Cl)cc1)N[C@H]1CCOC1=O [compound 10, reference compound] | 9 ± 12% | 5 ± 15% | 
O=C(N[C@H]1CCOC1=O)c1ccccc1Br [Q1] | 2 ± 5% | -3 ± 18% | 
